{"source": "patent US20180325117A1", "about": "“PROBIOTIC COMPOSITIONS AND USES THEREOF” (priority 2015, published 2018)", "format_in_all_cases": "in vivo", "key": {"hairy wart and foot rot": {"system": "hairy wart and foot rot", "test": "Hoof spray of lactating cows: lameness, hairy wart and foot rot"}, "turkeys [1]": {"system": "turkeys", "test": "Turkey mortality with water additive, flocks of 50,000 turkeys", "set-up": "mortality cumulative total per group: concentration or dose not given beside the values", "excerpt": "The mortality of the flock of 50,000 turkeys that consumed water with chlorine dioxide was 6.5% as compared to 3% for a flock of 50,000 turkeys consuming water with W+. The y-axis of FIG. 13 represents the cumulative total mortality (%), and the x-axis represents a 19-week period during which the turkeys were observed. The top dotted line represents a flock (of 50,000 turkeys) with chlorine dioxide added to their water. The middle dotted line represents a flock (of 50,000 turkeys) that for four weeks consumed water treated with chlorine dioxide (5 ppm). After four weeks, the water additive was changed to W+ diluted 1:10,000 (note the reduced slope of the mortality curve at week 5). The bottom solid line represents a flock (of 50,000 turkeys) that was fed water with W+."}, "Clostridial scours": {"system": "Clostridial scours", "test": "Swine gut health: scours on test farm", "details": "total population of 3,850 swine; chlorine dioxide standard water protocol, then W+ 1:6,000 in water lines", "protocol": "Scours (dysentery) is a common ailment in swine and is symptomatic of poor gut health (gastrointestinal tract health). […] Column (B) is the number of swine (397) that were infected with scours while on a standard water protocol of chlorine dioxide to prevent biofilm in the water lines. The addition of chlorine dioxide was stopped and W+ (at a dilution of 1:6,000) was added to the water lines, the number of swine with scours was reduced to 23 (Column (C)), a 94% reduction in the number of swine with Clostridial scours."}, "turkeys [2]": {"system": "turkeys", "test": "Turkey weight versus barn standard and mortality, six barns", "excerpt": "A common practice among commercial turkey growing facilities is to compare the weight gain of their flocks against a standard that is based on the performance of the grower's previous flocks. The grower has a standard for each barn, or group of barns, based on their recorded history. […] The flocks in the barns being fed W+ in their water (Barns-055, Barn-043, and Barn-025) exceeded standard weights by 11.7%, while the barns where the turkeys were fed water with chlorine dioxide (Barns-041, Barn-047, and Barn-045) were −7.6% compared to standard weights. The y-axis represents % deviation from a standard (Std)(average for each barn), and the x-axis represents data obtained from turkeys in six different barns (approximately 17,000 turkeys per barn)."}, "Mastitis": {"system": "Mastitis", "test": "Teat spray of lactating dairy cows: somatic cell count and Mastitis", "details": "210 lactating cows", "excerpt": "The efficacy of iodine versus D+t128 in reducing the presence of Mastitis was studied. […] 210 lactating dairy cows were milked twice a day for four weeks. The somatic cell count (SCC) of the herd at the beginning of the test period was 263,000/ml, as shown in the two right-hand columns of the top panel of FIG. 21. The standard protocol using iodine was as follows: prior to each milking, the teats of the dairy cows were sprayed with 0.5% iodine. After each milking, the teats of the dairy cows were sprayed with 1.0% iodine. Mastitis was evident on 27 of the cows (see bottom panel of FIG. 21). Treatment with iodine was then stopped, and D+t128 was used to treat the teats of the cows. Prior to each milking, the teats of the dairy cows were sprayed with 1.25 ounces of D+t128 at a dilution of 1:128. After each milking, the teats of the dairy cows were sprayed with 1.25 ounces of D+t128 at a dilution of 1:128. At the end of the test period, the SSC had decreased from 263,000/ml to 120,000/ml in the herd treated with D+t128 (see two right-hand columns of the top panel of FIG. 21). The lower the SSC, the healthier the cow; the lower SSC reading correlates with the reduced number of cows with Mastitis. The number of cows with Mastitis had decreased from 27 to 12 (see two right-hand columns of bottom panel of FIG. 21). The SSC values are an average of all milk obtained from the 210 lactating cows. […]"}}}
{"smiles": "O=S(=O)([O-])[O-].[Cu+2]", "note": "[Copper-Sulphate]", "values": [{"measurement": "percentage of lame cows", "setting": "hairy wart and foot rot; herd of 500 lactating cows, Copper-Sulphate spray = T0 start, D+h100 1:100 spray = day 35", "value": "over 35%"}, {"measurement": "cows with swelling indicating new hairy wart formation", "setting": "hairy wart and foot rot; start of test period, prior Copper-Sulphate spray, data not shown", "value": 60, "unit": "%"}]}
{"smiles": "[O][Cl+][O-]", "note": "[chlorine dioxide]", "values": [{"measurement": "mortality cumulative total per group", "setting": "turkeys [1]; Week 1", "value": 0.74, "unit": "%"}, {"measurement": "mortality cumulative total per group", "setting": "turkeys [1]; Week 2", "value": 1.45, "unit": "%"}, {"measurement": "mortality cumulative total per group", "setting": "turkeys [1]; Week 3", "value": 1.84, "unit": "%"}, {"measurement": "mortality cumulative total per group", "setting": "turkeys [1]; Week 4", "value": 2.15, "unit": "%"}, {"measurement": "mortality cumulative total per group", "setting": "turkeys [1]; Week 5", "value": 3.52, "unit": "%"}, {"measurement": "mortality cumulative total per group", "setting": "turkeys [1]; Week 6", "value": 3.97, "unit": "%"}, {"measurement": "mortality cumulative total per group", "setting": "turkeys [1]; Week 7", "value": 4.22, "unit": "%"}, {"measurement": "mortality cumulative total per group", "setting": "turkeys [1]; Week 8", "value": 4.46, "unit": "%"}, {"measurement": "mortality cumulative total per group", "setting": "turkeys [1]; Week 9", "value": 4.62, "unit": "%"}, {"measurement": "mortality cumulative total per group", "setting": "turkeys [1]; Week 10", "value": 4.79, "unit": "%"}, {"measurement": "mortality cumulative total per group", "setting": "turkeys [1]; Week 11", "value": 5.01, "unit": "%"}, {"measurement": "mortality cumulative total per group", "setting": "turkeys [1]; Week 12", "value": 5.14, "unit": "%"}, {"measurement": "mortality cumulative total per group", "setting": "turkeys [1]; Week 13", "value": 5.29, "unit": "%"}, {"measurement": "mortality cumulative total per group", "setting": "turkeys [1]; Week 14", "value": 5.46, "unit": "%"}, {"measurement": "mortality cumulative total per group", "setting": "turkeys [1]; Week 15", "value": 5.63, "unit": "%"}, {"measurement": "mortality cumulative total per group", "setting": "turkeys [1]; Week 16", "value": 5.82, "unit": "%"}, {"measurement": "mortality cumulative total per group", "setting": "turkeys [1]; Week 17", "value": 6.05, "unit": "%"}, {"measurement": "mortality cumulative total per group", "setting": "turkeys [1]; Week 18", "value": 6.29, "unit": "%"}, {"measurement": "mortality cumulative total per group", "setting": "turkeys [1]; Week 19", "value": 6.54, "unit": "%"}, {"measurement": "mortality cumulative total per group", "setting": "turkeys [1]; Week 20", "value": 6.84, "unit": "%"}, {"measurement": "mortality cumulative total per group", "setting": "turkeys [1]; Week 21", "value": 6.74, "unit": "%"}, {"measurement": "mortality of the flock (cumulative total)", "setting": "turkeys [1]; flock of 50,000 turkeys, FIG. 13, 19-week period, W+ 1:10,000, chlorine dioxide 5 ppm in water", "value": 6.5, "unit": "%"}, {"measurement": "number of swine infected with scours", "setting": "Clostridial scours", "value": 397}, {"measurement": "mortality rate (average)", "setting": "turkeys [2]; FIG. 23, turkeys fed water with additive", "value": 12.3, "unit": "%"}, {"measurement": "deviation from standard weights", "setting": "turkeys [2]; three barns per water additive, approximately 17,000 turkeys per barn, FIG. 14", "value": "−7.6", "unit": "%"}]}
{"smiles": "II", "note": "[iodine]", "values": [{"measurement": "somatic cell count (SCC) of the herd", "setting": "Mastitis; iodine protocol = beginning of test period, D+t128 1:128 teat spray before and after each milking = end of 28-day test period", "value": "263,000 /ml"}, {"measurement": "number of cows with Mastitis", "setting": "Mastitis; iodine protocol = start, D+t128 1:128 = finish of 28-day test period", "value": 27}]}
